In patent US7960369B2, “Receptor function regulator” (Takeda Pharmaceutical Company Limited, priority 2002, dated 2011):
Values belong to the compound of their own block, whether it stands above or below them.

What was measured:
[1] = test system: mouse pancreatic β cell line MIN6; experiment: Promotion of insulin secretion from MIN6 (insulin immunoassay); type: cell-based; conditions: MIN6, KRBH with 22 mM glucose, 90 min
Procedure: (§1) Mouse pancreatic β cell line MIN6 cultured in a flask was detached with PBS containing 2.5 mM EDTA, and seeded and incubated in a 96 well plate for 2 days. The medium used was obtained by adding 15% fetal bovine serum (ThermoTrace), […] 2-mercaptoethanol (Invitrogen), 20 mM HEPES pH 7.3, 100 U/ml penicillin and 100 μg/ml streptomycin to Dulbecco's Modified Eagle Medium (DMEM, Invitrogen) containing 4.5 g/l of glucose. The cells were washed twice with modified Krebs-Ringer bicarbonate buffer (KRBH, 116 mM NaCl, 4.7 mM KCl, 1.2 mM KH2PO4, 1.2 mM MgSO4, 2.5 mM CaCl2, 25 mM NaHCO3, 24 mM HEPES pH 7.3) and preincubated at 37° C. under 5% CO2 conditions for 30 min. Fatty acid diluted and prepared with a buffer obtained by adding 22 mM glucose to the above-mentioned KRBH was added to the cell after preincubation and the cells were incubated at 37° C. under 5% CO2 conditions for 90 min. After incubation, the cell supernatant was recovered and cryopreserved. The insulin content of the supernatant was measured using a commercially available insulin immunoassay kit (Amersham Pharmacia Biotech).
as §1, with “(KBH,” for “(KRBH,”, “The compound” for “Fatty acid”

[2] = target: T1, human-derived GPR40 (Homo sapiens, UniProt O14842); experiment: Reactivity of fatty acid to human-derived GPR40, intracellular calcium by FLIPR in transfected CHO-K1 cells; type: cell-based; conditions: for activity in intracellular calcium ion mobilization assay using CHO cell expressing GPR40 (GPR40 agonistic activity): as stated in Experimental Example 6
T1 construct: expressed in transfected cells; host or cells: CHO-K1, transient transfection with lipofectamine
T1 sequence (O14842 whole entry): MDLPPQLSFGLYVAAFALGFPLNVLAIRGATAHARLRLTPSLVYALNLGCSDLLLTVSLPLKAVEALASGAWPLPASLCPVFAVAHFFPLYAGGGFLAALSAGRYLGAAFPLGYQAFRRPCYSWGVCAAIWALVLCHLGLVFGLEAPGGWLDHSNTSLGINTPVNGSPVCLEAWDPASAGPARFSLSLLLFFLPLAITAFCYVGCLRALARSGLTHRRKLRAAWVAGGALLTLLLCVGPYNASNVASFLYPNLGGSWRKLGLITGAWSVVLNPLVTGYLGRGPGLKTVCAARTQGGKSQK
Procedure: Unless specifically indicated, CHO-K1 cell line was cultured using Ham's F-12 medium (Invitrogen) containing 10% fetal calf serum (Invitrogen). The day before transfection, 4.5×10^5 per 10 cm^2 of cells were seeded, and incubated at 37° C. for not less than 15 hrs in a CO2 incubator adjusted to 5% CO2 concentration. The transfection was performed using a lipofectamine reagent (Invitrogen) and according to the reagent attached method. When a 6-well plate was used for a culture plate, transfection was performed in the following manner. First two 1.5 ml volume tubes were prepared, and 100 μl of Opti-MEM-I medium (Invitrogen) was dispensed. Then, […] of an expression vector was added to one tube and 6 μl of a lipofectamine reagent was added to the other tube. They were mixed and stood still at room temperature for 20 min. A mixed solution for transfection containing this solution and Opti-MEM-I medium (800 μl) was added to CHO-K1 cell previously washed with Opti-MEM-I medium, and incubated in a CO2 incubator for 6 hrs. The incubated cells were rinsed with PBS (Invitrogen), detached with 0.05% trypsin-EDTA solution (Invitrogen), recovered by centrifugation. The obtained cells were counted, diluted such that 5×10^4 cells were contained per 200 μl of the medium, dispensed to black walled 96-well plate (Costar) at 200 μl per well, incubated overnight in a CO2 incubator. Various test samples were added to CHO-K1 cells transiently expressing the receptor by the above-mentioned transfection step, and changes in the intracellular calcium concentration then was measured using FLIPR (Molecular Device). For measurement of changes in intracellular calcium concentration by FLIPR, the following pretreatment was applied. First, an assay buffer for adding fluorescence dye Fluo-3AM (DOJIN) to the cell, or washing the cell immediately before FLIPR assay was prepared. To a solution (hereinafter HBSS/HEPES solution) obtained by adding 20 ml of 1M HEPES (pH 7.4) (DOJIN) to 1000 ml of HBSS (Invitrogen) was added a solution (10 ml) obtained by dissolving probenecid (710 mg, Sigma) in 1N NaOH (5 ml) and adding and mixing with HBSS/HEPES solution (5 ml) and the obtained solution was used as an assay buffer. Then, Fluo-3AM (50 μg) was dissolved in 21 μl of DMSO (DOJIN), and an equal amount of 20% pluronic acid (Molecular Probes) was added. The mixture was added to an assay buffer (10.6 ml) supplemented with 105 μl of fetal calf serum to give a fluorescence dye solution. The medium of the CHO-KL cell after transfection treatment was removed, a fluorescence dye solution was immediately dispensed at 100 μl per well and incubated in a CO2 incubator for 1 hr to incorporate the fluorescence dye into the cell. The incubated cells were washed with the above-mentioned assay buffer and set on FLIPR. The test sample to be added to receptor expressing CHO-KL cell was prepared using the assay buffer and simultaneously set on FLIPR. After the above-mentioned pretreatment, changes in the intracellular calcium concentration after addition of various test samples were measured by FLIPR.

[3] = test system: mouse insulinoma MIN6 cell; experiment: Insulin secretagogue effect of free fatty acid in mouse insulinoma MIN6 cell (RIA); type: cell-based; conditions: 300 μM-1000 μM free fatty acid-BSA (4:1), 11 mM glucose, 90 min (or 60 min)
Procedure: Unless otherwise specified, MIN6 cell was incubated in DMEM (high glucose, Invitrogen) containing 15% FCS (Trace Scientific Ltd.), 55 μM 2-mercaptoethanol, 100 U/ml penicillin, and 100 μg/ml streptomycin. Min6 cells were seeded in a 96 well plate at 10^5 cells per well, and incubated at 37° C. for 3 days in a CO2 incubator adjusted to 5% CO2 concentration. The medium was exchanged to RPMI1640 (glucose-free, Invitrogen) containing 10% FCS (Trace Scientific Ltd.), 5.5 mM glucose, 100 U/ml penicillin and 100 μg/ml streptomycin and the cells were further incubated for 24 hrs. The medium was aspirated, free fatty acid-bovine serum albumin (BSA) mixed solution (4:1, molar ratio) diluted with RPMI1640 (glucose-free, Invitrogen) containing 10% FCS (Trace Scientific Ltd.), 11 mM glucose, 100 U/ml penicillin, and 100 μg/ml streptomycin was added to the cells and reacted at 37° C. for 90 min. (or 60 min.) in a CO2 incubator adjusted to 5% CO2 concentration. The 96 well plate after reaction was centrifuged at 1500 rpm for 5 min. and the culture supernatant was recovered. The insulin amount secreted in this culture supernatant liquid was determined by radioimmunoassay (RIA) using a rat insulin RIA system (Amersham Pharmacia Biotech).

[4] = test system: siRNA-introduced MIN6 cell; experiment: Insulin secretion enhancing activity of fatty acid in siRNA-introduced MIN6; type: cell-based, mouse
Procedure: (§2) The expression amount of mouse GPR40-GFP was detected by the following enzyme immunoassay. The culture supernatant was discarded, washed with HBSS (Invitrogen), fixed with 0.01% glutaraldehyde (Wako Pure Chemical Industries, Ltd.) for 5 min., and blocked with PBS (TAKARA SHUZO) containing 2% BSA. 500-fold diluted anti-GFP monoclonal antibody 3E6 (NIPPON GENE CO., LTD.) was added and the cells were incubated at room temperature for 2 hrs., washed and 500-fold diluted HRP-labeled anti-mouse IgG antibody (ICN) was added, and the cells were incubated at room temperature for 2 hrs. After washing, TMB microwell peroxydase substrate (Funakoshi) was added and, after incubation for 30 min., sulfuric acid was added to stop the color developing reaction, and the absorbance at 450 nm was measured.
as §1
Insulin secretion enhancing activity in MIN6 cell, into which m40i103 was introduced using HVJ Envelope VECTOR KIT GenomONE based on the method of Experimental Example 5, was examined. The insulin secretion enhancing activity by fatty acid was examined by the method of Experimental Example 6.

[5] = test system: mouse GPR40-GFP fused protein; experiment: Suppression of expression of mouse GPR40-GFP fused protein by siRNA in CHO cells (enzyme immunoassay); type: cell-based; conditions: siRNA 2.86 Pmol/0.5 μl or 8.57 Pmol/1.5 μl introduced into mouse GPR40-GFP expressing CHO cell; absorbance at 450 nm
Procedure: as §2, with “CHO cell expressing fused protein of mouse GPR40 and GFP prepared by a method known per se was seeded in a 96 well plate at 3×10^4/well and incubated for one day. siRNA of various sequences (Dharmacon) (concentration of 2.86 Pmol/0.5 μl or 8.57 Pmol/1.5 μl) prepared using HVJ Envelope VECTOR KIT GenomONE™ ([…] SANGYO) and according to the report of Elbasir et al. (Nature 411 (6836), 494-498 (2001)) was introduced into the cells and the cells were further incubated for one day. The expression” for “The expression”

Compound: CCCCCCCC/C=C\CCCCCCCC(=O)O [oleic acid]
- insulin secretion enhancing activity [1]: significant insulin secretion enhancing activity
- response (increase in intracellular calcium concentration) of CHO-K1 cell expressing the GPR40 receptor ([2]; added at 10^−5M-10^−6M, FLIPR, control-vector cells showed no response): specifically responds
- activity in intracellular calcium ion mobilization assay using CHO cell expressing GPR40 (GPR40 agonistic activity) [2]: remarkable activity
- insulin secretion by MIN6 cell [3]: promoted

Compound: CCCCCCCCCCCCCCCC(=O)O [palmitic acid]
- insulin secretion by MIN6 cell [3]: promoted

- activity in intracellular calcium ion mobilization assay using CHO cell expressing GPR40 (GPR40 agonistic activity) [2]: remarkable activity
Compound: CCCCC/C=C\C/C=C\C/C=C\CCCCC(=O)O [γ-linolenic acid]
- insulin secretion enhancing activity [1]: significant insulin secretion enhancing activity
- insulin secretion by MIN6 cell [3]: promoted
- insulin secretion enhancing activity of fatty acid ([4]; MIN6 into which GPR40 specific siRNA m40i103 was introduced): no longer showed insulin secretion enhancing activity
- insulin secretion enhancing activity of fatty acid ([4]; MIN6 into which random sequence Scramble II duplex siRNA was introduced): retention of the insulin secretion enhancing activity

Compound: m40i103: "a mouse GPR40 specific siRNA (sense strand is SEQ ID NO: 23, antisense strand is SEQ ID NO: 24)" (sense CGCCAGUUGUGACAUUCUUTT; antisense TTGCGGUCAACACUGUAAGAA; chemistry not given here; one strand is listed 3' to 5')
- mouse GPR40-GFP expression amount [5]: lower GPR40-GFP expression amount
- effect of siRNA introduction on insulin secretion enhancing activity by linoleic acid and γ-linolenic acid ([4]; siRNA introduced into MIN6 with HVJ Envelope VECTOR KIT GenomONE): no longer showed insulin secretion enhancing activity

Compound: m40i256: mouse GPR40 specific siRNA "(sense strand is SEQ ID NO: 25, antisense strand is SEQ ID NO: 26)" (sense CUUGUUAGCCAUCCGAGGCTT; antisense TTGAACAATCGGTAGGCTCCG; chemistry not given here; one strand is listed 3' to 5')
- mouse GPR40-GFP expression amount [5]: lower GPR40-GFP expression amount
